Our source for the CC50 and IC50 values is ChEMBL document CHEMBL5215012, “Daphnepedunins A-F, Anti-HIV Macrocyclic Daphnane Orthoester Diterpenoids from Daphne pedunculata” (J Nat Prod, 2022).

The subject of one data set is MT4. The experiment in a line: Cytotoxicity against human MT4 cells assessed as reduction in cell viability by celltiter-glo luminescent cell viability assay. In kind it is toxicity, cell-based. Background: ATP-based viability assays read luminescence as a measure of living cells.
In data set [1] the test system is Human immunodeficiency virus 1. The experiment in a line: Anti-HIV activity against HIV-1 NL4-3 Nanoluc-sec virus infected in human MT4 cells assessed as viral growth inhibition by measuring luciferase activity measured after 3 days post-infection by Nano-Glo luciferase assay. In kind it is functional, organism-based. Particulars: Human immunodeficiency virus 1, NL4-3, MT4, 72 h.

For `C=C(C)[C@]12C[C@@H](C)[C@]34OC5(CCCCCCC[C@H](C)[C@@H]6[C@@H]3[C@]3(O[C@]6(C)OC3=O)[C@H](O)[C@@]3(CO)O[C@H]3[C@H]4[C@H]1O5)O2`, the CC50 (commonly the concentration giving 50% cytotoxicity) in the data set with MT4 is > 38500 nM. Also, the 50% inhibitory concentration (IC50) (as a rule, the midpoint of a concentration-inhibition curve) in data set [1] worked out at 187 nM.
With `C=C(C)[C@]12C[C@@H](C)[C@]34OC5(CCCCCCC[C@@H](C)[C@@H]6[C@@H]3[C@]3(O[C@]6(C)OC3=O)[C@H](O)[C@@]3(CO)O[C@H]3[C@H]4[C@H]1O5)O2`, in data set [1], the IC50 was determined as 229 nM.
`C=C(C)[C@]12C[C@@H](COC(=O)c3ccccc3)[C@]34OC5(CCCCCCC[C@H](C)[C@@H]6[C@@H]3[C@]3(O[C@]6(C)OC3=O)[C@H](O)[C@@]3(CO)O[C@H]3[C@H]4[C@H]1O5)O2`: the half-maximal cytotoxic concentration (CC50) with MT4 was 18800 nM. Further, the IC50 in data set [1] was 930 nM.
For `C=C(C)[C@]12C[C@@H](COC(=O)c3ccccc3)[C@@]34OC5(O[C@@H]1[C@@H]3[C@@H]1O[C@]1(CO)[C@@H](O)[C@@]1(O)[C@H]4[C@H]([C@H](C)[C@@H]1OC(=O)c1ccccc1)[C@H](C)CCCCCC[C@H]5O)O2`, the CC50 with MT4 is > 6500 nM. For the same compound, the IC50 in data set [1] came to 0.15 nM.
With `C=C(C)[C@]12C[C@@H](COC(=O)c3ccccc3)[C@@]34OC5(CCCCCCC[C@@H](C)[C@H]6[C@H](C)C(=O)[C@@](O)([C@H](O)[C@@]7(CO)O[C@H]7[C@H]3[C@H]1O5)[C@@H]64)O2`, the CC50 in the data set on MT4 was > 38500 nM. Besides, the IC50 in data set [1] worked out at 71 nM.
Turning to `C=C(C)[C@]12C[C@@H](C)[C@@]34O[C@]5(CCCCCCC[C@H](C)[C@H]6[C@H](C)C(=O)[C@@](O)([C@H](O)[C@@]7(CO)O[C@H]7[C@H]3[C@H]1O5)[C@@H]64)O2`, the IC50 in data set [1] was determined as 81.7 nM.
`C=C(C)[C@]12C[C@@H](C)[C@]34OC5(CCCCCCC[C@H](C)[C@@H]6[C@@H]3[C@@](O)(C(=O)[C@@]6(C)O)[C@H](O)[C@@]3(CO)O[C@H]3[C@H]4[C@H]1O5)O2`: the CC50 in the data set with MT4 was found to be 24200 nM. The IC50 in data set [1] was 107 nM.
For the compound `C=C(C)[C@]12C[C@@H](C)[C@]34OC5(CCCCCCC[C@@H](C)[C@@H]6[C@@H]3[C@@](O)(C(=O)[C@@]6(C)O)[C@H](O)[C@@]3(CO)O[C@H]3[C@H]4[C@H]1O5)O2`, in the data set on MT4, the CC50 was > 6500 nM. In addition, the concentration for half-maximal inhibition (IC50) in data set [1] was found to be 91.9 nM.
Regarding `C=C(C)[C@]12C[C@@H](C)[C@@]34OC5(CCCCCCC[C@@H](C)[C@H]6[C@H](C)C(=O)[C@@](O)([C@H](O)[C@@]7(CO)O[C@H]7[C@H]3[C@H]1O5)[C@@H]64)O2`, the CC50 with MT4 was > 6500 nM. Besides, the IC50 in data set [1] was 38.5 nM.
Turning to `C=C(C)[C@]12C[C@@H](C)[C@@]34OC5(CCCCCCCC[C@H]6[C@H](C)C(=O)[C@@](O)([C@H](O)[C@@]7(CO)O[C@H]7[C@H]3[C@H]1O5)[C@@H]64)O2`, the cytotoxic concentration (CC50) in the data set on MT4 is > 6500 nM. Also, in data set [1], the IC50 is 36.3 nM.
On to `C=C(C)[C@]12C[C@@H](COC(=O)c3ccccc3)[C@@]34OC5(CCCCC[C@@H](O)C[C@@H](C)[C@H]6[C@H](C)C(=O)[C@@](O)([C@H](O)[C@@]7(CO)O[C@H]7[C@H]3[C@H]1O5)[C@@H]64)O2`, for which the CC50 in the data set with MT4 was > 6500 nM. Moreover, the 50% inhibitory concentration (IC50) in data set [1] worked out at 69.2 nM.
Turning to `C=C(C)[C@]12C[C@@H](COC(=O)c3ccccc3)[C@]34OC5(CCCCC[C@@H](OC(=O)c6ccccc6)C[C@@H](C)[C@@H]6[C@@H]3[C@]3(O[C@]6(C)OC3=O)[C@H](O)[C@@]3(CO)O[C@H]3[C@H]4[C@H]1O5)O2`, the CC50 in the data set with MT4 worked out at 5300 nM. Moreover, the IC50 in data set [1] worked out at 423 nM.
As for `C=C(C)[C@]12C[C@@H](COC(=O)c3ccccc3)[C@]34OC5(CCCCCCC[C@@H](C)[C@@H]6[C@@H]3[C@]3(O[C@]6(C)OC3=O)[C@H](O)[C@@]3(CO)O[C@H]3[C@H]4[C@H]1O5)O2`, the CC50 in the data set with MT4 was 21700 nM. Moreover, the IC50 in data set [1] was 994 nM.
